“Also recorded” adds a separate entry of the source. Counter-ions that a name gives are not always drawn.
How the values were obtained:
[1] = test system: CHO-K1 cells; test: MTT cytotoxicity assay toward CHO cell line; details: 72 h exposure, whole concentration range, up to 1 mM
[2] = Thermal stability of pure crystalline solid; format: physicochemical; details: 100 °C for 12 h
[3] = Kinetics of acid-catalysed rearrangement of 2 to 4 in aqueous HCl (HPLC); details: for half-life at 50 µg/mL: 6 M aqueous HCl, Half life of rearrangement, initial concentration 50 µg/mL, n = 3
[4] = Rearrangement in simulated gastric fluid or equimolar aqueous HCl (HPLC); format: physicochemical; details: 0.08 M aq. HCl, 1 g/L NaCl and 1.6 g/L pepsin, 6 h at 37 °C
[5] = biological target: T1, human mAChR M2 (Homo sapiens, UniProt P08172); test: Competitive [3H]NMS radioligand binding assay on CHO cell membranes, mAChR M2; details: CHO cell membranes with human receptor, 1.5 h at 20 °C, this work
T1 construct: host or cells: CHO-K1 (stably transfected), membrane preparation
T1 sequence (P08172 1-466): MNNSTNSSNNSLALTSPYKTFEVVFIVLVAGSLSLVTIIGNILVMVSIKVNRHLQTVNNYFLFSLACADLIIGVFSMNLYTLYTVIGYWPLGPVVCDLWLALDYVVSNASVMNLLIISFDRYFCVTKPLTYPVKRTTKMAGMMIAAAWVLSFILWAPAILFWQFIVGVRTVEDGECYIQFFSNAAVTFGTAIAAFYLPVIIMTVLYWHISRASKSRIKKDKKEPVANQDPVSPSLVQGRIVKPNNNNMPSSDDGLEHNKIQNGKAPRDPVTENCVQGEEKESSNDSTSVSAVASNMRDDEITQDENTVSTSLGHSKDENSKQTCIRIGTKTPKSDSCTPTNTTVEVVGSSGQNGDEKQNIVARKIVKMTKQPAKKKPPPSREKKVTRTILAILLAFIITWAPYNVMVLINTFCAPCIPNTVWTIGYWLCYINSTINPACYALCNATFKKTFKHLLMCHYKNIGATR
Description: (§1) Filter bound decay rate is normalized to 1 for binding in absence of competitor and to 0 for nonspecific binding.
(§2) Membrane preparations of mAChR M1, M2, M3, M4 or M5 receptors were produced from the respective cell line as follows. The medium of a confluent T175 cell culture flask was poured off and the cell layer was washed with ice-cold PBS. Cells were scraped off and suspended in 2 mL 10 mM Tris/HCl, 1 mM EDTA buffer (pH 7.4) and 200 µL protease inhibitor cocktail. A cell homogenate obtained from passing the cell suspension through a G29 needle was centrifuged (10 min, 1,000 g, 4 °C).
(§3) A competitive radioligand binding assay using [^3H]NMS and variable concentrations of test compounds was performed in assay buffer (50 mM Tris/HCl, 10 mM MgCl2, 1 mM EDTA). Polypropylene tubes were filled with 5 µL aqueous solution of the test compounds, 50 µL radioligand solution in assay buffer and 445 µL membrane suspension in assay buffer (diluted approx. 1:100), shaken and incubated for 1.5 h at 20 °C. Nonspecific binding of the radioligand was determined by using 5 µL of a 1 µM scopolamine hydrobromide solution. The concentration of the radioligand solution was chosen as 2 nM, 3 nM, 8 nM, 2 nM and 10 nM for M1-M5, respectively. […] Specific binding was calculated as total binding minus nonspecific binding. To delineate the IC50 value, specific binding was plotted against the logarithm of the test compound concentration and fitted by a variable slope logistic regression.
(§4) Table S3: HPLC parameters of the methods for the analysis of pirenzepine, telenzepine and their rearrangement products. LOD = limit of
(§5) detection, LOL = limit of linearityi
(§6) Stably transfected CHO-K1 cells containing human muscarinic receptors M1-M5 were purchased from Missouri
(§7) University of Science and Technology cDNA Resource Center (Cell Catalog#: CEM1000000, CEM2000000,
(§8) Limited) supplemented with 10% FBS (Gibco, Life Tec hnologies Limited) and 250 µg/mL Geneticin® (G418, Thermo
(§9) Fisher) at 37 °C and 5% CO2 in a cell incubator. Cells were passaged using Gibco Trypsin -EDTA (0.05%). A solution of […]

[6] = biological target: T2, human mAChR M4 (Homo sapiens, UniProt P08173); test: Competitive [3H]NMS radioligand binding assay on CHO cell membranes, mAChR M4; details: CHO cell membranes with human receptor, 1.5 h at 20 °C, this work
T2 construct: host or cells: CHO-K1 (stably transfected), membrane preparation
T2 sequence (P08173 1-479): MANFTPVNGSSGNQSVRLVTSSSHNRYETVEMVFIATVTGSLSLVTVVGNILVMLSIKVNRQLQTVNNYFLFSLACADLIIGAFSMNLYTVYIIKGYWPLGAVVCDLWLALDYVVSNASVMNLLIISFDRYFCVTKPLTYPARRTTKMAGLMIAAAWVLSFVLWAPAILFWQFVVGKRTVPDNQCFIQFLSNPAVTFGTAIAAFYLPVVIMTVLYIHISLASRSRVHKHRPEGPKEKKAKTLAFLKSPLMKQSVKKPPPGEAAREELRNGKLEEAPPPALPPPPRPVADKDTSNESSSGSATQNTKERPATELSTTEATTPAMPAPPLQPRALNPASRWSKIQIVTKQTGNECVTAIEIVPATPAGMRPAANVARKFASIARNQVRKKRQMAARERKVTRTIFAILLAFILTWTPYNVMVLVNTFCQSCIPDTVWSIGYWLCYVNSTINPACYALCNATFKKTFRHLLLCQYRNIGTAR
Description: as §1, §2, §3, §4, §5, §6, §7, §8, §9

[7] = biological target: T3, human mAChR M1 (Homo sapiens, UniProt P11229); test: Competitive [3H]NMS radioligand binding assay on CHO cell membranes, mAChR M1; details: for Ki: [3H]NMS 0.2 nM, CHO cell membranes with human receptor, 1.5 h at 20 °C, this work
T3 construct: host or cells: CHO-K1 (stably transfected), membrane preparation
T3 sequence (P11229 1-460): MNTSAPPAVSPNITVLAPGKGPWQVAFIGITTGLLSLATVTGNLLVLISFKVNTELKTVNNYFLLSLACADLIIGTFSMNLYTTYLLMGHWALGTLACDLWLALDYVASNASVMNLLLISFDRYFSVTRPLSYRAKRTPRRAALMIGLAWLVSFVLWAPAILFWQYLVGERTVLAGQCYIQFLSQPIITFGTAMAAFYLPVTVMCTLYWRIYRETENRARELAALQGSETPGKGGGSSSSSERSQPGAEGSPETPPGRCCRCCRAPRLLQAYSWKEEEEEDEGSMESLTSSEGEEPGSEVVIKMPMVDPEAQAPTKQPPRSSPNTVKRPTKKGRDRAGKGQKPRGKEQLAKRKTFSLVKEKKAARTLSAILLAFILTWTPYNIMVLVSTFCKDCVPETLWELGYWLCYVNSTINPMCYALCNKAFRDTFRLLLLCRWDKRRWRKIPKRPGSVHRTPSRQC
Description: as §1, §2
as §3, with “solution.” for “solution. The concentration of the radioligand solution was chosen as 2 nM, 3 nM, 8 nM, 2 nM and 10 nM for M1-M5, respectively.”
as §4, §5, §6, §7, §8
Fisher) at 37 °C and 5% CO2 in a cell incubator. Cells were passaged using Gibco Trypsin -EDTA (0.05%). A solution of
P2714-1BTL, Sigma-Aldrich in 10 mL water was used as protease inhibitor cocktail.

[8] = biological target: T4, human mAChR M3 (Homo sapiens, UniProt P20309); test: Competitive [3H]NMS radioligand binding assay on CHO cell membranes, mAChR M3; details: CHO cell membranes with human receptor, 1.5 h at 20 °C, this work
T4 construct: host or cells: CHO-K1 (stably transfected), membrane preparation
Description: as §1, §2, §3, §4, §5, §6, §7, §8, §9

[9] = biological target: T5, human mAChR M5 (Homo sapiens, UniProt P08912); test: Competitive [3H]NMS radioligand binding assay on CHO cell membranes, mAChR M5; details: CHO cell membranes with human receptor, 1.5 h at 20 °C, this work
T5 construct: host or cells: CHO-K1 (stably transfected), membrane preparation
T5 sequence (P08912 1-532): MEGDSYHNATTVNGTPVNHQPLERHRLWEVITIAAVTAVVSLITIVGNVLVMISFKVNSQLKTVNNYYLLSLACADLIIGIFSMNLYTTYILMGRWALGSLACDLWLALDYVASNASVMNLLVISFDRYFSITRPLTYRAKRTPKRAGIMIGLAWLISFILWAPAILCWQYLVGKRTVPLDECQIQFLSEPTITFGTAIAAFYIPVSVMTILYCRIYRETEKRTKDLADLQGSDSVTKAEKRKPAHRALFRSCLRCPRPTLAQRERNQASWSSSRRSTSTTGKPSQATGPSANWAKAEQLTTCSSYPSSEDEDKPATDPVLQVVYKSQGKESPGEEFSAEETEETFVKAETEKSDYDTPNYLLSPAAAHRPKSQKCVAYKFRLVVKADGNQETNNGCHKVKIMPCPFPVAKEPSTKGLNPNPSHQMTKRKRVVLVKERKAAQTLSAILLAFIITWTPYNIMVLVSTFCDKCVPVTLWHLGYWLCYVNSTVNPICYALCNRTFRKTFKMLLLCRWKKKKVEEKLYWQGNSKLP
Description: as §1, §2, §3, §4, §5, §6, §7, §8, §9

[10] = biological target: mAChR M2; details: read-out: Ki mAChR M2; 90 min at 37 °C, membranes from rat heart tissue; cited from earlier work
[11] = biological target: mAChR M3; set-up: method as in PMID 2066986; details: 90 min at 37 °C, transfected A9L cells; cited from earlier work
[12] = biological target: mAChR M1; details: read-out: Ki mAChR M1; 90 min at 37 °C, transfected A9L cells; cited from earlier work
[13] = biological target: mAChR M4; details: read-out: Ki mAChR M4; 90 min at 37 °C, NG108-15 cells; cited from earlier work

T4 sequence (P20309 whole entry): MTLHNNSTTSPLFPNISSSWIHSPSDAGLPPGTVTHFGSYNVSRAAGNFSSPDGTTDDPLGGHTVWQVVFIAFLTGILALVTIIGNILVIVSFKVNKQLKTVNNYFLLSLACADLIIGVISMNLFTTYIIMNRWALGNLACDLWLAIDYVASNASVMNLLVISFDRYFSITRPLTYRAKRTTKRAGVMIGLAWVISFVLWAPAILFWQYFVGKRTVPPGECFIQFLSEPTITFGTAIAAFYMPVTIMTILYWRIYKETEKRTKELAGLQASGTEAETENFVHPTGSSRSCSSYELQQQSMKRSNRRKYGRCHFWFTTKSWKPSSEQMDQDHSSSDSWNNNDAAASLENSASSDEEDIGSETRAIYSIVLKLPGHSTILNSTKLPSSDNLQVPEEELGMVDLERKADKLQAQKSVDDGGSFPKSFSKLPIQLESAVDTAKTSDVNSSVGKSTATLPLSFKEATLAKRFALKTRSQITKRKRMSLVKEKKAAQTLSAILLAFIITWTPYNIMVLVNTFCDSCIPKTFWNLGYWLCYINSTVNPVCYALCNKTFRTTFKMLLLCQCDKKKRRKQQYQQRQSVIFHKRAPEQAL

| SMILES | Effect on cell viability (MTT assay) [1] | Formation of 4 on heating the solid [2] | Formation of 4 from 2 ([3]; 0.1 M aqueous HCl at 37 °C, 55 °C or 75 °C overnight) | Activation energy of the rearrangement ([3]; 6 M HCl, from slope of Arrhenius plot) | half-life at 50 µg/mL ([3]; 6 M HCl, 37 °C) | half-life at 50 µg/mL ([3]; 6 M HCl, 55 °C) | half-life at 50 µg/mL ([3]; 6 M HCl, 75 °C) | Conversion of 2 to 4 ([3]; strong excess of aqueous HCl (6 M), pseudo first order kinetic) | Isomerization of 2 to 4 in simulated gastric fluid [4] | Ki [5] | Ki [6] | Ki [7] | Ki [8] | Ki [9] | Ki [10] | Ki [11] | Loss of affinity towards M1 on rearrangement (affinity constant of rearranged product vs parent) ([7]; rearranged product (4 or 5) versus parent drug) | Ki [12] | Ki [13] |
| --- | --- | --- | --- | --- | --- | --- | --- | --- | --- | --- | --- | --- | --- | --- | --- | --- | --- | --- | --- |
| CN1CCN(CC(=O)N2c3ccccc3C(=O)Nc3cccnc32)CC1 [Compound 2, Pirenzepine dihydrochloride] | No cytotoxic effect | did not result in formation of 4 in detectable amounts | < 1% | 19.9 ± 0.454 kcal/mol | 13.8 ± 0.5 h | 1.95 ± 0.267 h | 0.417 ± 0.0333 h | quantitative conversion | neither simulated gastric fluid (0.08 M aq. HCl, 1 g/L NaCl and 1.6 g/L pepsin) nor equimolar aqueous HCl solution caused detectable isomerization |  |  |  |  |  |  |  |  |  |  |
| CN1CCN(Cc2nc3cccnc3n2-c2ccccc2C(=O)O)CC1.Cl.Cl [Compound 4, 2-(2-((4-methylpiperazin-1-yl)methyl)-3H-imidazo[4,5-b]pyridin-3-yl)benzoic acid dihydrochloride] | No cytotoxic effect; also recorded: without measurable effect on cell viability |  |  |  |  |  |  |  |  | 47000 ± 19000 nM | 1200 ± 200 nM | 600 ± 20 nM | 7000 ± 2000 nM | 360 ± 20 nM |  |  |  |  |  |
| Cc1scc(C(=O)O)c1-n1c(CN2CCN(C)CC2)nc2ccccc21 [Compound 5, 5-methyl-4-(2-((4-methylpiperazin-1-yl)methyl)-1H-benzo[d]imidazol-1-yl)thiophene-3-carboxylic acid] | No cytotoxic effect; also recorded: without measurable effect on cell viability |  |  |  |  |  |  |  |  | 10600 ± 1500 nM | 2000 ± 400 nM | 1400 ± 300 nM | 8000 ± 3000 nM | 4100 ± 200 nM |  |  |  |  |  |
| Cc1scc2c1N(C(=O)CN1CCN(C)CC1)c1ccccc1NC2=O [telenzepine 2HCl, Telenzepine dihydrochloride] | No cytotoxic effect |  |  |  |  |  |  |  |  | 26 ± 5 nM | 29 ± 16 nM | 1.8 ± 0.8 nM | 12 ± 2 nM | 16 ± 9 nM | 50.3 nM | 6.9 nM | 780 fold | 1.8 nM | 17.4 nM |

— publication PMC8642400, “Unexpected scaffold rearrangement product of pirenzepine found in commercial samples” (Scientific Reports, 2021)
